How the values were obtained:
Assay type in all cases: in vivo
Amaranthus retroflexus [1] = test: Pre-emergence herbicidal action; details: 1280 g/ha, scored visually after about 3 weeks vs untreated controls
Method in brief: (§1)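 Pre-emergence soil-surface spray at 1280 g/ha, compounds formulated as WP or EC, applied in 600 l/ha water containing 0.5% additive over freshly sown, soil-covered seeds. Pots then kept in greenhouse; damage rated visually as percent of untreated controls about 3 weeks later, 0% = like control.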

Echinochloa crus-galli [2] = test: Pre-emergence herbicidal action; details: 1280 g/ha, scored visually after about 3 weeks vs untreated controls
Method in brief: as §1

Abutilon theophrasti [3] = test: Pre-emergence herbicidal action; details: 1280 g/ha, scored visually after about 3 weeks vs untreated controls
Method in brief: as §1

Viola tricolor [4] = test: Pre-emergence herbicidal action; details: 1280 g/ha, scored visually after about 3 weeks vs untreated controls
Method in brief: as §1

Stellaria media [5] = test: Pre-emergence herbicidal action; details: 1280 g/ha, scored visually after about 3 weeks vs untreated controls
Method in brief: as §1

Lolium rigidum [6] = test: Pre-emergence herbicidal action; details: 1280 g/ha, scored visually after about 3 weeks vs untreated controls
Method in brief: as §1

Polygonum convolvulus [7] = test: Pre-emergence herbicidal action; details: 1280 g/ha, scored visually after about 3 weeks vs untreated controls
Method in brief: as §1

Hordeum murinum [8] = test: Pre-emergence herbicidal action; details: 1280 g/ha, scored visually after about 3 weeks vs untreated controls
Method in brief: as §1

Setaria viridis [9] = test: Pre-emergence herbicidal action; details: 1280 g/ha, scored visually after about 3 weeks vs untreated controls
Method in brief: as §1

Alopecurus myosuroides [10] = test: Pre-emergence herbicidal action; details: 1280 g/ha, scored visually after about 3 weeks vs untreated controls
Method in brief: as §1

Matricaria inodora [11] = test: Pre-emergence herbicidal action; details: 1280 g/ha, scored visually after about 3 weeks vs untreated controls
Method in brief: as §1

Avena fatua = test: Pre-emergence herbicidal action; details: 1280 g/ha, scored visually after about 3 weeks vs untreated controls
Method in brief: as §1

Amaranthus retroflexus [12] = test: Post-emergence herbicidal action; details: 1280 g/ha, rated visually after about 3 weeks vs untreated controls
Method in brief: (§2)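 Greenhouse weeds in sandy loam sprayed at one-leaf stage (2-3 weeks after sowing) with WP or EC formulations plus 0.5% additive, 600 l/ha water, 1280 g/ha. Activity scored visually about 3 weeks later versus untreated controls (100% = dead, 0% = like control).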

Echinochloa crus-galli [13] = test: Post-emergence herbicidal action; details: 1280 g/ha, rated visually after about 3 weeks vs untreated controls
Method in brief: as §2

Abutilon theophrasti [14] = test: Post-emergence herbicidal action; details: 1280 g/ha, rated visually after about 3 weeks vs untreated controls
Method in brief: as §2

Viola tricolor [15] = test: Post-emergence herbicidal action; details: 1280 g/ha, rated visually after about 3 weeks vs untreated controls
Method in brief: as §2

Stellaria media [16] = test: Post-emergence herbicidal action; details: 1280 g/ha, rated visually after about 3 weeks vs untreated controls
Method in brief: as §2

Lolium rigidum [17] = test: Post-emergence herbicidal action; details: 1280 g/ha, rated visually after about 3 weeks vs untreated controls
Method in brief: as §2

Polygonum convolvulus [18] = test: Post-emergence herbicidal action; details: 1280 g/ha, rated visually after about 3 weeks vs untreated controls
Method in brief: as §2

Hordeum murinum [19] = test: Post-emergence herbicidal action; details: 1280 g/ha, rated visually after about 3 weeks vs untreated controls
Method in brief: as §2

Setaria viridis [20] = test: Post-emergence herbicidal action; details: 1280 g/ha, rated visually after about 3 weeks vs untreated controls
Method in brief: as §2

Veronica persica = test: Post-emergence herbicidal action; details: 1280 g/ha, rated visually after about 3 weeks vs untreated controls
Method in brief: as §2

Alopecurus myosuroides [21] = test: Post-emergence herbicidal action; details: 1280 g/ha, rated visually after about 3 weeks vs untreated controls
Method in brief: as §2

Pharbitis purpurea [22] = test: Post-emergence herbicidal action; details: 1280 g/ha, rated visually after about 3 weeks vs untreated controls
Method in brief: as §2

Matricaria inodora [23] = test: Post-emergence herbicidal action; details: 1280 g/ha, rated visually after about 3 weeks vs untreated controls
Method in brief: as §2

Pharbitis purpurea [24] = test: Pre-emergence herbicidal action; details: 1280 g/ha, scored visually after about 3 weeks vs untreated controls
Method in brief: as §1

| Compound | herbicidal activity on Amaranthus retroflexus (Amaranthus retroflexus [1]) [%] | herbicidal activity on Echinochloa crus-galli (Echinochloa crus-galli [2]) [%] | herbicidal activity on Abutilon theophrasti (Abutilon theophrasti [3]) [%] | herbicidal activity on Viola tricolor (Viola tricolor [4]) [%] | herbicidal activity on Stellaria media (Stellaria media [5]) [%] | herbicidal activity on Lolium rigidum (Lolium rigidum [6]) [%] | herbicidal activity on Polygonum convolvulus (Polygonum convolvulus [7]) [%] | herbicidal activity on Hordeum murinum (Hordeum murinum [8]) [%] | herbicidal activity on Setaria viridis (Setaria viridis [9]) [%] | herbicidal activity on Alopecurus myosuroides (Alopecurus myosuroides [10]) [%] | herbicidal activity on Matricaria inodora (Matricaria inodora [11]) [%] | herbicidal activity on Avena fatua (Avena fatua) [%] | herbicidal activity on Amaranthus retroflexus (Amaranthus retroflexus [12]) [%] | herbicidal activity on Echinochloa crus-galli (Echinochloa crus-galli [13]) [%] | herbicidal activity on Abutilon theophrasti (Abutilon theophrasti [14]) [%] | herbicidal activity on Viola tricolor (Viola tricolor [15]) [%] | herbicidal activity on Stellaria media (Stellaria media [16]) [%] | herbicidal activity on Polygonum convolvulus (Polygonum convolvulus [18]) [%] | herbicidal activity on Hordeum murinum (Hordeum murinum [19]) [%] | herbicidal activity on Setaria viridis (Setaria viridis [20]) [%] | other results |
| --- | --- | --- | --- | --- | --- | --- | --- | --- | --- | --- | --- | --- | --- | --- | --- | --- | --- | --- | --- | --- | --- |
| COc1cnc(Oc2nn(C)c(C)c2Sc2ccccc2)nc1 [Example I-140] | 100 | 100 | 100 | 100 | 100 | 100 | 100 | 100 | 100 | 100 | 100 | 100 | 100 | 100 | 100 | 100 | 90 | 100 | 80 | 100 | herbicidal activity on Lolium rigidum (Lolium rigidum [17]): 80%; herbicidal activity on Veronica persica (Veronica persica): 100%; herbicidal activity on Alopecurus myosuroides (Alopecurus myosuroides [21]): 100%; herbicidal activity on Pharbitis purpurea (Pharbitis purpurea [22]): 100%; herbicidal activity on Matricaria inodora (Matricaria inodora [23]): 100% |
| Cc1c(Sc2ccccc2)c(Oc2ncccn2)nn1C [Example I-126] | 100 | 100 | 100 | 100 | 100 | 100 | 100 | 100 | 100 | 100 | 100 | 100 | 100 | 100 | 100 | 100 | 100 | 100 | 80 | 100 | herbicidal activity on Pharbitis purpurea (Pharbitis purpurea [24]): 90%; herbicidal activity on Alopecurus myosuroides (Alopecurus myosuroides [21]): 100%; herbicidal activity on Pharbitis purpurea (Pharbitis purpurea [22]): 100%; herbicidal activity on Matricaria inodora (Matricaria inodora [23]): 80% |

Reference: patent US20200181117A1, “SUBSTITUTED 3-HETEROARYLOXY-1H-PYRAZOLES AND SALTS THEREOF AND THEIR USE AS HERBICIDAL ACTIVE SUBSTANCES” (BAYER CROPSCIENCE AKTIENGESELLSCHAFT, priority 2017, published 2020)
